# In patent publication US20170107207A1, “AMINOPYRAZOLONE DERIVATIVE” (DAIICHI SANKYO COMPANY, LIMITED, priority 2014, published 2017):
# Experiments:
# [1] = test system: human lymphoma cell line RAMOS cells; assay: Cell growth inhibition test using RAMOS cell, ATP assay (CellTiter-Glo); assay type: cell-based; settings: cultured 3 days, 50% growth inhibition concentration
# Method: A cell growth inhibition test was carried out by treating human lymphoma cell line RAMOS cells with a test compound for a given period and then counting the number of viable cells by MTT assay or CellTiter-Glo Luminescent Cell Viability Assay (manufactured by Promega Corp.; hereinafter, referred to as ATP assay).
# RAMOS cells were inoculated at 4000 cells/40 μL/well to a 384-well plate containing the compound prepared in advance at predetermined concentrations. The cells thus inoculated were cultured at 37° C. for 3 days under 5% CO2. In order to measure a cell survival rate, CellTiter-Glo Reagent was added in an amount corresponding to 1/4 of the amount of the culture solution at the day of cell inoculation and at the final culture date and stirred at room temperature for 2 minutes. Then, luminescence intensity was measured using a plate reader. The cell survival rate was calculated according to the expression given below.
# The number of viable cells and luminescence intensity have been confirmed to correlate with each other. Therefore, the rate of cell growth was calculated according to the following expression: Rate of cell growth (T/C %) of a test compound-supplemented well=100×[(B−C)/(A−C)] wherein A represents the luminescence intensity (final culture date) of a test compound-free well; B represents the luminescence intensity (final culture date) of a test compound-containing well; and C represents the luminescence intensity (day of cell inoculation) of a well at the start of contact of the cells with the test compound.
# T/C % at each concentration of the test compound was determined. The concentration at which the test compound offered 50% growth rate was calculated as a GI50 value from the growth rates at two points interpolating 50% and the concentrations, and is shown in Table 56.
# [2] = target: T1, TIP48/TIP49 complex (Homo sapiens, UniProt Q9Y230+Q9Y265); assay: ATPase assay of TIP48/TIP49 complex (ADP-Glo); assay type: biochemical; settings: concentration at which the ATPase activity was inhibited by 50%
# T1 construct: made in house; host or cells: E. coli
# Source text: The ATPase activity of the TIP48/TIP49 complex can be measured by use of an ATPase assay described below in Test Examples 1 and 2. The ATPase activity of the TIP48/TIP49 complex can be measured, as described below in the Test Examples, for example, by using recombinant human TIP48 and TIP49 proteins (hereinafter, referred to as rTIP48 and rTIP49) and ATP in the presence or absence of a test compound and measuring the amount of ADP formed through hydrolysis by the ATPase activity of the TIP48/TIP49 complex, using ADP-Glo. Alternatively, the ATPase activity of the TIP48/TIP49 complex can be measured by a method described in, for example, J. Mol. Biol. 366, 172-179 (2007).
# An ATPase assay of a TIP48/TIP49 complex was conducted using rTIP48 and rTIP49. Human TIP48 and TIP49 DNAs were purchased from Open Biosystems. Human TIP48 and TIP49 cDNAs cloned by PCR using the purchased DNAs were each integrated into plasmids for expression in E. coli and expressed in E. coli to obtain rTIP48 and rTIP49.
# A test compound was dissolved at 10 mM using DMSO. The solution was diluted to 10 concentrations as 4-fold serial dilutions from 10 mM using DMSO.
# A 2×assay buffer (100 mM Tris-HCl, pH 7.5, 100 mM NaCl, 40 mM MgCl2, 2 mM DTT, 20 μM ATP, and 0.2 mg/mL BSA) was dispensed at 24.5 μL/well to a 384-well assay plate.
# Test compound solutions were dispensed thereto at 1 μL/well. Subsequently, the solution in each well was mixed using a plate mixer.
# rTIP48 and rTIP49 were diluted to a concentration of 50 μg/mL using sterilized water. The diluted solution was dispensed at 24.5 μL/well to the 384-well assay plate. Subsequently, the solution in each well was mixed using a plate mixer (final concentration: 24.5 μg/mL) (concentration of each test compound solution: 200 μM, 50 μM, 12.5 μM, 3.12 μM, 0.78 μM, 0.20 μM, 0.049 μM, 0.012 μM, 0.003 μM, and 0.0007 μM; DMSO concentration: 2%).
# After the mixing using the plate mixer, the assay plate was left standing at room temperature for 1.5 hours.
# 5 μL of the solution in each well was transferred to a white assay plate, and ADP-Glo Reagent from ADP-Glo Kinase Assay (Promega Corp., catalog No. V9101) was dispensed thereto at 5 μL/well. After completion of the reaction, the plate was left standing at room temperature for 40 minutes. Kinase Detection Reagent was further dispensed thereto at 5 μL/well, and the plate was left standing at room temperature for 30 minutes. Then, luminescence intensity was measured using a plate reader.
# The ATPase inhibitory activity was calculated according to the expression given below.
# The luminescence intensity of a well supplemented with the test compound and the TIP48/TIP49 complex was defined as A. The luminescence intensity of a well supplemented with only the TIP48/TIP49 complex was defined as B. The luminescence intensity of a well supplemented with neither the test compound nor the TIP48/TIP49 complex was defined as C. The ratio between the test compound-supplemented group and the test compound-nonsupplemented group (T/C value) was determined according to the following calculation expression:
# The dose-response curve was calculated using GraphPad Prism 4 from the concentration of each of the serially diluted test compounds and the ATPase inhibitory activity (%) at this concentration.
# T1 sequence (Q9Y230 whole entry): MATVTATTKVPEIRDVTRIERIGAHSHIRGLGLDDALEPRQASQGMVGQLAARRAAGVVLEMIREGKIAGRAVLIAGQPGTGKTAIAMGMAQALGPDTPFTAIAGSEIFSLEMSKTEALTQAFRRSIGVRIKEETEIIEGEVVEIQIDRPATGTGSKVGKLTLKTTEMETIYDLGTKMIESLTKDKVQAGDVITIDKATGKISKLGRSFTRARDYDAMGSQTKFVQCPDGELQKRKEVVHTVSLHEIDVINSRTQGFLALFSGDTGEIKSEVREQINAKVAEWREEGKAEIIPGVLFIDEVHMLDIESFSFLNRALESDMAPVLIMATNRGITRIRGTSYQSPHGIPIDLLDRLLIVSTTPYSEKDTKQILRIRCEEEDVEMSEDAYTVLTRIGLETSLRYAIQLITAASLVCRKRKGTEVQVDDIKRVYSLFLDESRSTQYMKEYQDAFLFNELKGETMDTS
# T1 sequence (Q9Y265 whole entry): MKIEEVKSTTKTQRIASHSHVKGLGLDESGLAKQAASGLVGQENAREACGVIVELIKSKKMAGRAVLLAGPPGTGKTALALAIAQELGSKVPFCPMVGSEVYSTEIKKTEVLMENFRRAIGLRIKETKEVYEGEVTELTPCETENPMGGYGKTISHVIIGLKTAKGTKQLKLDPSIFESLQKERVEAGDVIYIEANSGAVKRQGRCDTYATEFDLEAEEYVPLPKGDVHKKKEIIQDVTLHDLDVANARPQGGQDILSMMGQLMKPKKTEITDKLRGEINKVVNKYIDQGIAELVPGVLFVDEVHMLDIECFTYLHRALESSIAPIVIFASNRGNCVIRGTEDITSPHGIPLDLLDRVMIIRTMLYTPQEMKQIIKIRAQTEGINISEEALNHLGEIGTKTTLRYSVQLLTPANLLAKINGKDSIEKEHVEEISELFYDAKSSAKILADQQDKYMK
"GI50 ([1]; Homo sapiens, Ramos, 72 h) [nM]",IC50 [2] [nM],GI50 [1] [nM],Structure (SMILES)
300,110,–,"CCOc1ncc(Cl)cc1C(=O)NCC(C)(C)CC(=O)Nc1c(C(C)NC)n(C)n(-c2ccccc2)c1=O (single isomer, unassigned) [Example 85, (+)-/(−)-5-Chloro-N-[2,2-dimethyl-4-({1-methyl-5-[1-(methylamino)ethyl]-3-oxo-2-phenyl-2,3-dihydro-1H-pyrazol-4-yl}amino)-4-oxobutyl]-2-ethoxypyridine-3-carboxamide]"
–,65,490,"CCOc1ncc(Cl)cc1C(=O)NCC(C)(C)CC(=O)Nc1c(C(CN(C)C)OC)n(C)n(-c2ccccc2)c1=O (single isomer, unassigned; (+)) [Example 83, (+)-5-Chloro-N-[4-({5-[2-(dimethylamino)-1-methoxyethyl]-1-methyl-3-oxo-2-phenyl-2,3-dihydro-1H-pyrazol-4-yl}amino)-2,2-dimethyl-4-oxobutyl]-2-ethoxypyridine-3-carboxamide]"
370,49,–,"CCOc1ncc(Cl)cc1C(=O)NCC(C)(C)CC(=O)Nc1c(C(CN(C)C)OC)n(C)n(-c2ccccc2)c1=O (single isomer, unassigned; (-)) [Example 82, (−)-5-Chloro-N-[4-({5-[2-(dimethylamino)-1-methoxyethyl]-1-methyl-3-oxo-2-phenyl-2,3-dihydro-1H-pyrazol-4-yl}amino)-2,2-dimethyl-4-oxobutyl]-2-ethoxypyridine-3-carboxamide]"
–,90,180,"CCOc1ncc(Cl)cc1C(=O)NCC(C)(C)CC(=O)Nc1c(C(C)NC)n(C)n(-c2ccccc2)c1=O (single isomer, unassigned; (-)) [Example 86, (−)-5-Chloro-N-[2,2-dimethyl-4-({1-methyl-5-[1-(methylamino)ethyl]-3-oxo-2-phenyl-2,3-dihydro-1H-pyrazol-4-yl}amino)-4-oxobutyl]-2-ethoxypyridine-3-carboxamide]"
130,170,–,"CCOc1ccc(Cl)cc1C(=O)NCC(C)(C)CC(=O)Nc1c(C(C)NC)n(C)n(-c2ccccc2)c1=O (stereo not drawn) [Example 1, 5-Chloro-N-[2,2-dimethyl-4-({1-methyl-5-[1-(methylamino)ethyl]-3-oxo-2-phenyl-2,3-dihydro-1H-pyrazol-4-yl}amino)-4-oxobutyl]-2-ethoxybenzamide]"
250,160,–,"CCOc1ncc(Cl)cc1C(=O)NCC(C)(C)CC(=O)Nc1c(C(C)NC)n(C)n(-c2ccccc2)c1=O (stereo not drawn) [Example 2, 5-Chloro-N-[2,2-dimethyl-4-({1-methyl-5-[1-(methylamino)ethyl]-3-oxo-2-phenyl-2,3-dihydro-1H-pyrazol-4-yl}amino)-4-oxobutyl]-2-ethoxypyridine-3-carboxamide]"
570,76,–,"COCc1cc2cc(Cl)cc(C(=O)NCC(C)(C)CC(=O)Nc3c(CCN(C)C)n(C)n(-c4ccccc4)c3=O)c2o1 [Example 15, 5-Chloro-N-[4-({5-[2-(dimethylamino)ethyl]-1-methyl-3-oxo-2-phenyl-2,3-dihydro-1H-pyrazol-4-yl}amino)-2,2-dimethyl-4-oxobutyl]-2-(methoxymethyl)benzofuran-7-carboxamide]"
570,68,–,"CN(C)CCc1c(NC(=O)CC(C)(C)CNC(=O)c2cc(Cl)cc3c2OCCO3)c(=O)n(-c2ccccc2)n1C [Example 16, 7-Chloro-N-[4-({5-[2-(dimethylamino)ethyl]-1-methyl-3-oxo-2-phenyl-2,3-dihydro-1H-pyrazol-4-yl}amino)-2,2-dimethyl-4-oxobutyl]-2,3-dihydro-1,4-benzodioxine-5-carboxamide]"
130,33,–,"CCOc1ccc(Cl)cc1C(=O)NCC(C)(C)CC(=O)Nc1c(CCNCC(F)(F)F)n(C)n(-c2ccccc2)c1=O [Example 26, 5-Chloro-N-[2,2-dimethyl-4-({1-methyl-3-oxo-2-phenyl-5-[2-(2,2,2-trifluoroethylamino)ethyl]pyrazol-4-yl}amino)-4-oxobutyl]-2-ethoxybenzamide]"
130,48,–,"CCOc1cc(F)c(Cl)cc1C(=O)NCC(C)(C)CC(=O)Nc1c(CCNCC(F)(F)F)n(C)n(-c2ccccc2)c1=O [Example 27, 5-Chloro-N-[2,2-dimethyl-4-({1-methyl-3-oxo-2-phenyl-5-[2-(2,2,2-trifluoroethylamino)ethyl]-2,3-dihydro-1H-pyrazol-4-yl}amino)-4-oxobutyl]-2-ethoxy-4-fluorobenzamide]"
200,48,–,"COCOc1ccc(Cl)cc1C(=O)NCC(C)(C)CC(=O)Nc1c(CCN(C)C)n(C)n(-c2ccccc2)c1=O [Example 28, 5-Chloro-N-[4-({5-[2-(dimethylamino)ethyl]1-methyl-3-oxo-2-phenyl-2,3-dihydro-1H-pyrazol-4-yl}amino)-2,2-dimethyl-4-oxobutyl]-2-(methoxymethoxy)benzamide]"
150,48,–,"COCOc1cc(F)c(Cl)cc1C(=O)NCC(C)(C)CC(=O)Nc1c(CCN(C)C)n(C)n(-c2ccccc2)c1=O [Example 29, 5-Chloro-N-[4-({5-[2-(dimethylamino)ethyl]1-methyl-3-oxo-2-phenyl-2,3-dihydro-1H-pyrazol-4-yl}amino)-2,2-dimethyl-4-oxobutyl]-4-fluoro-2-(methoxymethoxy)benzamide]"
480,94,–,"CCOc1ncc(Br)cc1C(=O)NCC(C)(C)CC(=O)Nc1c(CCN(C)C)n(C)n(-c2ccccc2)c1=O [Example 30, 5-Bromo-N-[4-({5-[2-(dimethylamino)ethyl]1-methyl-3-oxo-2-phenyl-2,3-dihydro-1H-pyrazol-4-yl}amino)-2,2-dimethyl-4-oxobutyl]-2-ethoxypyridine-3-carboxamide]"
170,52,–,"[2H]C([2H])([2H])N(CCc1c(NC(=O)CC(C)(C)CNC(=O)c2cc(Cl)ccc2OCC)c(=O)n(-c2ccccc2)n1C)C([2H])([2H])[2H] [Example 31, N-{4-[(5-{2-[bis(trideuteriomethyl)amino]ethyl}-1-methyl-3-oxo-2-phenyl-2,3-dihydro-1H-pyrazol-4-yl)amino]-2,2-dimethyl-4-oxobutyl}-5-chloro-2-ethoxybenzamide]"
1300,130,–,"CCOc1ccc(Cl)cc1NC(=O)CC1(CC(=O)Nc2c(CCN(C)C)n(C)n(-c3ccccc3)c2=O)CCCC1 [Example 32, N-(5-chloro-2-ethoxyphenyl)-2-{1-[2-({5-[2-(dimethylamino)ethyl]-1-methyl-3-oxo-2-phenyl-2,3-dihydro-1H-pyrazol-4-yl}amino)-2-oxoethyl]cyclopentyl}acetamide]"
